{"source": "patent US20140066410A1", "about": "“INHIBITORS OF BROMODOMAINS AS MODULATORS OF GENE EXPRESSION” (ICAHN SCHOOL OF MEDICINE AT MOUNT SINAI, priority 2011, published 2014)", "key": {"p53 target genes": {"test_system": "p53 target genes", "test": "RT-PCR array of p53 signaling pathway genes in U20S cells", "assay_type": "cell-based", "method": "The selectivity of ischemin in transcription inhibition of p53 target genes was evaluated using a RT-PCR array analysis of RNA isolated from biological samples of U20S cells. The array was performed on RNA isolated from three different biological repeats in U20S cells using a set of primers selected for a group of genes that are known to be associated within p53 signaling pathways. The differentially expressed genes in treated related to untreated groups, i.e. doxorubicin treated versus untreated, or doxorubicin plus ischemin versus doxorubicin alone, were subjected to pathway analysis by using the Ingenuity System software. The fold changes of these genes were converted to log2Ratio and then imported into IPA tool along with gene symbols. The enriched pathways in the gene list were identified by Fisher exact test at p value of 0.05 and visualized in Canonical pathway explorer."}, "CBP BRD": {"target": "CBP BRD (Homo sapiens, UniProt Q92793)", "sequence (Q92793 1085-1192 limits assumed)": "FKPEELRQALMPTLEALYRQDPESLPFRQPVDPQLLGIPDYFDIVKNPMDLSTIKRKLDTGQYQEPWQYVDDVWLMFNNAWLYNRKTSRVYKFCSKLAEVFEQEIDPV", "test": "Bromodomain binding affinity (tryptophan fluorescence binding assay)", "conditions": "over PCAF, BRD41, BAZ1B and BAZ2B", "method": "Monitoring change of intrinsic tryptophan fluorescence of a protein induced by ligand binding can be used to determine ligand binding affinity (KD). This assay was used to assess ligand binding to the CBP BRD and ischemin binding to the BRDs from other transcription proteins as follows. The chemical ligands were prepared at 500-850 μM in the PBS buffer. Their serial dilutions by a factor of 1.5 in a 384-wells black plate were carried out using a Tecan EVO200 liquid handler down to a concentration of 0.5 nM. Protein was added to the compounds to a final concentration in each well of 5 μM. Tryptophan fluorescence of the protein was measured (with excitation set at 280 nm, emission at 350 nm) on a Tecan Safire2 reader. Inner filter correction was introduced to take into account the possible intrinsic fluorescence of the compound. […] KD was calculated based on the curve fitting."}, "p53 [1]": {"test_system": "p53", "test": "p21 luciferase assay (p53 inhibition) in U20S cells upon doxorubicin", "assay_type": "cell-based", "method": "U20S Cells were transfected with p21 luciferase (1 μg) and renilla luciferase (100 ng) vectors in 6 well plate format using Fugene 6 (Roche). Briefly, total of 1.1 micrograms of vector was incubated with […] of Fugene 6 reagent for 30 min. After 3-4 hours of transfection, cell were treated with compounds for overnight, and then exposed to 300 nanogram of doxorubicin for next 24 hours. In these experiments, DMSO, transfected cells with empty vector and cell without doxorubicin were used as controls. DMSO concentration is maintained at 0.01%. Transfected cells with doxorubicin treatment were used as positive control. The luciferase activity was estimated by following the manufacturer's instruction (Promega) in a luminometer. […] The inhibitory activity (IC50) of a small molecule on p21 luciferase activity was obtained from the average of three biological replicates using PRISM software."}, "p53 [2]": {"test_system": "p53", "test": "Western blot of doxorubicin-treated U20S cells", "assay_type": "cell-based", "method": "U20S cells were harvested cells and lysed in lysis buffer (20 mM Tris (pH 8.0), 150 mM NaCl, 1 mM EGTA, 1% Triton X-100, and 50 mM NaF) containing protease inhibitor cocktail (Sigma). The cells were sonicated and spun down at 14,000 rpm for 30 min at 4° C. After protein estimation, 30-50 micrograms of lysates were subjected to SDS-PAGE, transferred onto nitrocellulose membranes, blocked with 5% milk/PBS and blotted with a primary antibody. Horse radish peroxidase-labeled secondary antibodies (goat anti-Mouse or anti-Rabbit) were added for 60 min at room temperature, and the blots were washed with TBS (20 mM Tris, 150 mM Nacl, and 0.05% tween −20) and subjected to autoradiography after development of reaction by ECL (GE health care).\nThe biochemical effects of ischemin on p53 stability and function as transcription factor was examined. U20S cells were incubated in the presence of doxorubicin with or without ischemin at concentration of 50 or 100 μM for 24 hours. Subsequently, cellular proteins were subjected to western blot analysis (as described above).\nAs a transcription factor, p53 ability to activate gene expression is also dependent upon chromatin modifications. Since CBP acetylates both histones and p53, the possible changes of epigenetic marks on p53 and global histones in presence of ischemin was evaluated."}, "[3]": {"conditions": "ischemin 50 or 100 μM, 24 hours, U20S cells"}, "[4]": {"conditions": "nuclear extracts from U20S cells"}}, "data": [{"smiles": "Cc1cc(/N=N/c2cc(S(=O)(=O)O)c(C)cc2C)c(N)cc1O", "note": "[Ischemin/MS120, 5-(2-amino-4-hydroxy-5-methylphenylazo)-2,4-dimethylbenzenesulfonic acid]", "values": [{"measurement": "Doxorubicin-induced expression of p53 target genes (CCNE2, CCNG2, CDC2, CDC25A, CDKN1A, CDKN2A, GADD45A, E2F1, E2F3, PCNA, SESN1, SESN2)", "setting": "p53 target genes", "value": "differentially reduce"}, {"measurement": "Selectivity for the CBP BRD over other human BRDs", "setting": "CBP BRD", "value": "up to five-fold selectivity"}, {"measurement": "Inhibition of p21 luciferase activity", "setting": "p53 [1]; U20S cells, FIG. 1A", "value": "Dose-dependent inhibition"}, {"measurement": "Ability to inhibit p53-dependent p21 luciferase activity / p21 expression (SAR, words)", "setting": "p53 [1]; compared with lead / ortho-methyl analogs", "value": "nearly completely suppresses"}, {"measurement": "inhibition at 50 µM", "setting": "p53 [1]; compounds at 50 μM, doxorubicin-treated U20S cells", "value": 104, "unit": "%"}, {"measurement": "Level or functional phosphorylation state of ATM and CHK1", "setting": "p53 [2]; U20S cells, doxorubicin", "value": "did not affect"}, {"measurement": "Expression of p53 target genes p21, PUMA and 14-3-3s induced by doxorubicin", "setting": "p53 [2]; [3]", "value": "significantly decreased"}, {"measurement": "Levels of p53 protein, p53S15p and p53K382ac induced by doxorubicin", "setting": "p53 [2]; [3]", "value": "marked reduction"}, {"measurement": "H3 acetylation at Lys9", "setting": "p53 [2]; [4]", "value": "decrease"}, {"measurement": "Histone H3 phosphorylation at Ser10", "setting": "p53 [2]; [4]", "value": "increase"}]}]}
